The results in this text go back to patent US10669283B2, “Compound and pharmacologically acceptable salt thereof” (MEIJI SEIKA PHARMA CO., LTD., priority 2016, dated 2020).

Data set [1] is described as follows: Hepatic metabolic stability (rat liver microsome method). To be noted: rat liver microsomes 0.5 mg/mL, test substance 1 μM, NADPH 1 mM, 37° C., 30 minutes. The format is in vitro ADME. The gist of the method:
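Test compound (1 μM) preincubated with rat liver microsomes (0.5 mg/mL) in 100 mM potassium phosphate pH 7.4 at 37° C; NADPH (1 mM) started reaction, acetonitrile stopped it at 0 and 30 min. LC-MS quantitation; % remaining = 30-min/0-min ×100, graded A ≥75%, B 60–<75%, C 45–<60%, D <45%.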
Background: Liver microsomes are vesicles of endoplasmic reticulum, rich in cytochrome P450 enzymes.

Data set [2] concerns PDE4. The experiment in a line: PDE4 inhibition, scintillation proximity assay (SPA). The format is biochemical. To be noted: scintillation proximity assay; class symbols; read-out: PDE4 Inhibitory Activity. The essentials:
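Scintillation proximity read-out: [2,8-3H]-cAMP hydrolysis by PDE4 ran 120 min at room temperature in Tris-HCl pH 7.4 buffer with 8.3 mM MgCl2, 1.7 mM EGTA and 3 mg/mL BSA. Bead-bound product (YSi-SPA with ZnSO4, 15 min) counted; blank lacks enzyme, control has DMSO only.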
In general terms: In a scintillation proximity assay essentially only radioactivity close to the scintillant gives light.

Consider `CC(O)(CO)C(F)(F)Oc1ccc(-c2nccs2)c2oc(N3CC4CC(C3)N4)nc12` (racemic) [Example 326, 3-((2-(3,6-Diazabicyclo[3.1.1]heptan-3-yl)-7-(thiazol-2-yl)benzo[d]oxazol-4-yl)oxy)-3,3-difluoro-2-methylpropane-1,2-diol], for which the “Residual ratio (% remaining for 30-minute reaction)” value in data set [1] is “A (a % remaining rate of 75% or more)”. In addition, the IC50 in data set [2] is below 100 nM.
